Data taken from patent US11180486B2, “Indolylkojyl methane analogues, process of preparation thereof and use as inhibitor of cancer cells invasion and metastasis” (Council of Scientific & Industrial Research, priority 2017, dated 2021).
Where “and” joins values, the source holds several entries; their conditions need not be identical. Equal values may be shown once.

Tests used:
MCF7 cells [1] = test: Matrigel invasion assay; type: cell-based; conditions: Homo sapiens, 200 nM, 24 h, vs vehicle
Description: (§1) Matrigel Invasion Assay. The effect of compound 5 on invasion capability of breast cancer cells was evaluated using BD Biocoat Tumor Invasion Assay System (BD Bioscience, Bedford, Mass.) according to the manufacturer's instruction. Briefly, MDA-MB-231 and MCF7 cells (1×10^6) cells were cultured in the presence of 200 nM of compound 5, along with doxorubicin and vehicle for 24 h in serum free media in the upper chambers/inserts, and the bottom wells were filled with chemo-attractant (complete media with 10% FBS). Cells were allowed to migrate at 37° C. and 5% CO2. After 24 h, the matrigel-coated polycarbonate filters were removed, the non-migrating cells were separated from the upper chamber with a cotton swab and the inserts were fixed with methanol and stained with 0.25% crystal violet solution. For each replicate (n=3), migration of the cells was quantified by counting the stained cells (cells per five random fields) under an inverted microscope (Amin et al., 2015, Mol. Carcinog).

MDA-MB-231 cells [2] = test: Matrigel invasion assay; type: cell-based; conditions: Homo sapiens, 200 nM, 24 h, vs vehicle
Description: as §1

MCF7 cells [3] = test: Cell scattering assay (bFGF stimulated); type: cell-based, human; conditions: bFGF plus 200 nM, 48 h, vs bFGF alone
Description: (§2) Cell Scattering Assay. The procedure was followed according to the previously described method (Amin et al., 2015, Mol. Carcinog). Briefly, MDA-MB-231 and MCF7 cells were trypsinized, seeded in 6 well plates at a density of 1000 cells/well and incubated for 5 days for the formation of small colonies. On the sixth day, exhausted media was replaced by fresh media and cells were stimulated with bFGF (20 ng/mL) along with 5 (200 nM) or doxorubicin for 48 h. Cells were then washed with PBS and photographs were taken under inverted microscope at 20× magnification.

MDA-MB-231 cells [4] = test: Cell scattering assay (bFGF stimulated); type: cell-based, human; conditions: bFGF plus 200 nM, 48 h, vs bFGF alone
Description: as §2

Par-4 = test: Immunoblotting, expression of Par-4; type: cell-based, human
Description: Immunoblotting. MDA-MB-231 and MCF7 cells (0.5×10^6) were plated in six well plates for overnight in a humidified CO2 incubator and then exposed to varying concentrations of 5 (50, 100 and 200 nM) for 24 h along with vehicle (dose dependent study) and 200 nM of 5 for various time points like; 0, 6, 12, 24 and 48 h (time dependent study). Cells were then harvested, washed with chilled PBS and lysed with lysis buffer (HEPES 1 mM, KCl 60 mM, NP-40 0.3%, EDTA 1 mM, DTT 1 mM, sodium orthovanadate 1 mM, PMSF 0.1 mM and cocktail protease inhibitor). The cell extractions were centrifuged at 12,000 rpm for 10 min at 4° C. Protein concentration was measured by the standard Bradford method. […] Immunoreactive proteins were detected by Enhanced Chemiluminescence Plus (Thermo) (Rah et al., 2012, PloS one, 7(9), p.e44039.).
Drug Potentiation Assay. […] The ability of 5 to enhance cell killing was expressed as potentiation index (PI), which was the ratio of the % inhibition of 5 alone at the given dose and the % inhibition in combination with doxorubicin. […]

[5] = system: mouse mammary carcinoma (4T1) cells; type: in vivo
Description: In Vivo Anti-Tumor and Anti-Metastatic Efficacy Studies. To evaluate the antitumor and antimetastatic effect of 5 in vivo, healthy female Balb/c mice (b.w. 18-23 g) were taken. The experimental protocols were approved by the Institutional Animal Ethics Committee, CPCSEA, of Indian Institute of Integrative Medicine, Jammu. The animals were maintained at 22° C. with a 12 h light-dark cycle and free access to feed and water inside the institutional animal house. Proper care was taken to maintain them in a healthy condition and to avoid any risk of possible pathogenic contaminations. For subcutaneous implantation, the mice were randomized into two groups of 5 mice per group and 1.5 million mouse mammary carcinoma (4T1) cells in serum free RPMI media were injected subcutaneously into the mammary fat pad of each mouse. Either 1 week after the tumor cell implantation or when the tumor volume reached ˜150 mm^3, mice were injected intraperitoneally with either normal saline (NS) or parent compound 1 (100 mg/kg, b.w.) or 5 (30 mg/kg, b.w.) in each alternate days for two weeks. Tumor size was recorded on each alternate days post-cell injection and body weights were recorded once per week. Mice were sacrificed on the 15th day of treatment initiation and tumors were incised for its measurement. Metastatic lung nodules were counted using a dissecting microscope. Lungs were then minced into fine pieces, suspended in medium containing collagenase and kept in 37° C. incubator with vigorous shaking for 2 h. The suspension was then filtered with the help of 70 μm cell strainer (BD, USA) to get the single cell suspension. Then, the suspension was serially diluted for 3-4 times in selection medium containing 6-thioguanine, for the selection of 4T1 cells. Each dilution containing the lung cell suspension was then plated into individual petridishes and incubated at 37° C. and 5% CO2 for the growing of 4T1 cell colonies. After 15 days of incubation, cells were washed with PBS, fixed with methanol and stained with 0.2% crystal violet solution for 1 h. Images of the 4T1 colonies were observed, counted and photographed under an inverted microscope at 20× magnification.

CCCCCCCC(c1oc(CO)cc(=O)c1O)c1c[nH]c2ccccc12 (stereo not drawn) [Compound 5, 2-{1-(1H-indol-3-yl)octyl}-3-hydroxy-6-(hydroxymethyl)-4H-pyran-4-one]
inhibition at 0.2 µM (MCF7 cells [1]): 79%
inhibition at 0.2 µM (MDA-MB-231 cells [2]): 67%
cell scattering inhibited (MCF7 cells [3]): 84.5%
cell scattering inhibited (MDA-MB-231 cells [4]): 80%
increase in the expression of Par-4 (Par-4; MDA-MB-231, 5 and doxorubicin in combination, 24 h, vs each alone, densitometry): 5.8 fold
expression of Par-4 (Par-4; MDA-MB-231 cells, dose dependent): induced significantly
decrease in metastatic lung nodules ([5]; 30 mg/kg b.w. i.p., alternate days for two weeks): 84.5%
inhibition in tumor growth ([5]; 30 mg/kg b.w. i.p., alternate days for two weeks, vs normal saline): 79.2% and 67%
colony formation by 4T1 cells in lung suspension ([5]; 30 mg/kg b.w., compared to 1 and vehicle treated animals): inhibited drastically
